From patent US7396842B2, “Five-membered cyclic compounds” (Dianippon Sumitomo Pharma Co., Ltd., priority 2002, dated 2008)
Where two headings read alike, the source gives them in different places.

Molecular target: T1, SMBS on rat lung membranes (Rattus norvegicus, UniProt A0A8I6A822)
T1 construct: from tissue; host or cells: rat lung membranes (SD male rats)
Assay: Receptor binding of the compound in rat lung membranes ([125I]-iodo-cyanopindolol ligand binding assay; Experiments 1 and 4)
Settings: rat lung membranes, read-out: Binding Activity (30 μM)
Protocol: Evaluation Test on Receptor Binding of the Compound in Rat Lung Membranes:
This experiment was carried out according to the method disclosed in Sugasawa et al., (Sugasawa, T. et al., J. Biol. Chem., 272, 21244-21252(1997)).
Preparation of Rat Lung Membranes
The air tube and blood vessels were removed from the lung excised from SD male rats (7-weeks old when used, purchased from Charles River Japan, Inc.), and the lung was chopped, and washed with ice-cold tris-saline buffer (10 mM Tris-HCl, 154 mM sodium chloride, pH 7.4). The lung was homogenized by PHYSCOTRON (maximum speed: 1 minute) in a buffer for homogenization (tris-saline buffer containing 1 mM ethylenediaminetetraacetate (EDTA), 1 mM 4-(2-aminoethyl)-benzenesulfonyl fluoride (AEBSF), 5 μg/ml aprotinin, 5 μg/ml leupeptin) under ice-cooling. The mixture was centrifuged at a low speed (1500×g, 20 minutes, 4° C.), and the supernatant was super-centrifuged (100000×g, 20 minutes, 4° C.). The pellets thus obtained were suspended in tris-saline buffer, and kept at −80° C. The concentration of protein was measured by a Protein Assay Kit manufactured by Bio-Rad using bovine serum albumin (BSA) as standard.
To each well of a protein-non-adsorbent round-bottom 96-well assay plate (purchased from IWAKI GLASS CO., LTD.) was added tris-saline buffer (200 μl) containing 1 nM [^125I]-iodo-cyanopindolol (purchased from Amarsham), 10 μM serotonin, 20 μM dl-propranol, 10 μM phentoramine, 1.1 mM ascorbic acid and 100 μg lung membranes, and the mixture was mixed well by pipetting, and the plate was incubated at 37° C. for 30 minutes. Test compounds were dissolved in 100% dimethylsulfoxide, and added to the plate in an amount of 2 μl (final concentration of DMSO: 1%). In order to obtain non-specific binding, L-threo-3-(3,4-dihydroxyphenyl)-N-[3-(4-fluorophenyl)propyl]-serinepyrrolidinamide was added at a final concentration of 100 μM instead of test compound. During this period, 0.3% polyethyleneimine (PEI)/tris-saline buffer (100 μl) was added to a multiscreen plate (96-well B-glassfiber, milipore Cat. No. MAFB NOB10) and the plate was incubated for more than 30 minutes. The plate was washed by vacuum filtration (by adding ice-cold tris-saline buffer (200 μl) and then vacuum filtration), and the reaction solution on the 96-well assay plate was washed by vacuum filtration onto the multiscreen plate for four times. The B-glassfiber paper filter at the bottom of the multiscreen plate was punched out, and the γ-ray amount of [^125I]-iodo-cyanopindolol being trapped onto the paper filter was measured as binding amount. The binding amount in the presence of DMSO (final concentration: 1%) was regarded as total binding, and the binding in the presence of L-threo-3-(3,4-dihydroxyphenyl) -N-[3-(4-fluorophenyl)-propyl]serinepyrrolidinamide was regarded as non-specific binding. The value which is calculated by subtracting non-specific binding from total binding is specific binding. The binding activity of the compound can be calculated by the following equation, and expressed in a ratio of inhibiting the specific binding of [^125I]-iodo-cyanopindorol to SMBS on rat lung membranes.
In the same manner to in Experiment 1, the receptor binding assay was carried out on the present compounds by using the rat lung membranes.

[1] = Table 44, concentration tested 30 μM, Experiment 4
[2] = ratio of inhibiting the specific binding of [125I]-iodo-cyanopindolol, test concentration 30 μM

T1 sequence (A0A8I6A822 27-587): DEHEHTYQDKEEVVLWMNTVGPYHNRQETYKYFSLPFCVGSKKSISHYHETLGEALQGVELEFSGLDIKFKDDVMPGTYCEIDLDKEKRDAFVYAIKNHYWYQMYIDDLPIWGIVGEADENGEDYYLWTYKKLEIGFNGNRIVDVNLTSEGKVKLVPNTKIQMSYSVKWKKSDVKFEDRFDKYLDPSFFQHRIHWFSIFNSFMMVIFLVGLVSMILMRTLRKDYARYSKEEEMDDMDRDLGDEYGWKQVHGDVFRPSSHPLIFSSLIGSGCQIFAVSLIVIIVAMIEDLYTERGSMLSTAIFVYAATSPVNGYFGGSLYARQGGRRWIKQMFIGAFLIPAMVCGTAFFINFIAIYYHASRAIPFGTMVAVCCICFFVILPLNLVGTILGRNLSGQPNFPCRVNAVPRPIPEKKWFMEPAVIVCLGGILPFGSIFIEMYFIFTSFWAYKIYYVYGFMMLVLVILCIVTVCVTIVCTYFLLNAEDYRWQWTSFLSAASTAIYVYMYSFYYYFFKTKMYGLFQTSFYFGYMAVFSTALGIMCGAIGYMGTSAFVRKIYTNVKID

Row | Compound | inhibition at 30 µM [1] [%] | inhibition at 30 µM [2] [%] | also measured
1 | CCNC(=O)CNCCCn1c(-c2ccc(OC(F)(F)F)cc2)cs/c1=N\Cc1ccc(Cl)cc1 [Example 417, N^2-{3-[2-[(4-Chlorobenzyl)imino]-4-[4-(trifluoromethoxy)phenyl]-1,3-thiazol-3(2H)-yl]propyl}-N^1-ethylglycinamide] |  |  | inhibition at 30 µM (Table 43, concentration tested 30 μM, Experiment 4): 113%
2 | O=C(CNCCCn1c(-c2ccc(OC(F)(F)F)cc2)cs/c1=N\Cc1ccc(Cl)cc1)NCCO [Example 423] | 113 |  | 
3 | O=C(O)CNCCCn1c(-c2ccc(OC(F)(F)F)cc2)cs/c1=N\Cc1ccc(Cl)cc1 [Example 427, N-{3-[2-[(4-Chlorobenzyl)imino]-4-[4-(trifluoromethoxy)phenyl]-1,3-thiazol-3(2H)-yl]propyl}glycine] | 100 |  | 
4 | O=C(O)CCNCCCn1c(-c2ccc(OC(F)(F)F)cc2)cs/c1=N\Cc1ccc(Cl)cc1 [Example 428] | 103 |  | 
5 | COc1cc(Cl)ccc1C/N=c1\scc(-c2ccc(F)cc2)n1CCCNC(=N)N [Example 429, N′-{3-[2-[(4-Chloro-2-methoxybenzyl)imino]-4-(4-fluorophenyl)-1,3-thiazol-3(2H)-yl]propyl}guanidine] | 103 |  | 
6 | CCS(=O)(=O)NCCCn1c(-c2ccc(OC(F)(F)F)cc2)cs/c1=N\Cc1ccc(Cl)cc1 [Example 430, N′-{3-[2-[(4-Chlorobenzyl)imino]-4-[4-(trifluoromethoxy)phenyl]-1,3-thiazol-3(2H)-yl]propyl}ethanesulfonamide] | 89 |  | 
7 | COc1ccc(C(=O)/N=c2\scc(C(=O)Nc3ccc(Cl)cc3)n2CCCN)c(OC)c1 [Example 431, 3-(3-Aminopropyl)-N-(4-chlorophenyl)-2-[(2,4-dimethoxybenzoyl)imino]-2,3-dihydro-1,3-thiazol-4-carboxamide] | 95 |  | 
8 | COc1ccc(C(=O)/N=c2\scc(C(=O)N3CCc4ccccc4C3)n2CCCN)c(OC)c1 [Example 432] | 42 |  | 
9 | COc1ccc(C(=O)/N=c2\scc(C(=O)NCCCCc3ccccc3)n2CCCN)c(OC)c1 [Example 435] | 93 |  | 
10 | COc1ccc(C(=O)/N=c2\scc(-c3ccc(OC(F)(F)F)cc3)n2CCCN)c(OC)c1 [Example 437] | 106 |  | 
11 | NCCCn1c(-c2ccc(OC(F)(F)F)cc2)cs/c1=N\C(=O)c1ccco1 [Example 441] | 61 |  | 
12 | CCOC(=O)NCCCn1c(-c2ccc(OC(F)(F)F)cc2)cs/c1=N\C(=O)c1ccc(OC)cc1OC [Example 444] | 99 |  | 
13 | CCCC(=O)NCCCn1c(-c2ccc(OC(F)(F)F)cc2)cs/c1=N\C(=O)c1ccc(OC)cc1OC [Example 447] | 89 |  | 
14 | CCCCCC(=O)NCCCn1c(-c2ccc(OC(F)(F)F)cc2)cs/c1=N\C(=O)c1ccc(OC)cc1OC [Example 448] | 77 |  | 
15 | CC(=O)NCCCn1c(-c2ccc(OC(F)(F)F)cc2)cs/c1=N\C(=O)c1ccccn1 [Example 449] | 71 |  | 
16 | CC(=O)NCCCn1c(-c2ccc(OC(F)(F)F)cc2)cs/c1=N\C(=O)c1ccncc1 [Example 452] | 84 |  | 
17 | CC(=O)NCCCn1c(-c2ccc(OC(F)(F)F)cc2)cs/c1=N\C(=O)CCc1ccccc1 [Example 454] | 38 |  | 

More lines, main results first:

Row | inhibition at 30 µM [1] [%] | inhibition at 30 µM [2] [%] | Compound | also measured
18 | 87 |  | CC(=O)NCCCn1c(-c2ccc(OC(F)(F)F)cc2)cs/c1=N\C(=O)CC1CCCC1 [Example 458] | 
19 |  | 42 | COc1ccc(C(=O)/N=c2\scc(C(=O)Nc3ccc(Cl)cc3)n2CCCNC(C)=O)c(OC)c1 [Example 461] | 
20 |  | 10 | COc1ccc(C(=O)/N=c2\scc(C(=O)NCc3ccc(Cl)cc3)n2CCCNC(C)=O)c(OC)c1 [Example 463] | 
21 | 33 |  | COc1ccc(C(=O)N=c2scc(CNS(=O)(=O)c3ccc(C)cc3)n2CCCNC(C)=O)c(OC)c1 [Example 473, N-[3-[3-(Acetylamino)propyl]-4-({[(4-methylphenyl)sulfonyl]amino}-methyl)thiazol-2(3H)-ylidene]-2,4-dimethoxybenzamide] | 
22 |  | 85 | COc1ccc(C(=O)/N=c2\scc(-c3ccc(OC(F)(F)F)cc3)n2CCCNC(=O)CN(C)C)c(OC)c1 [Example 482] | 
23 |  | 97 | CCNC(=O)NCCCn1c(-c2ccc(OC(F)(F)F)cc2)cs/c1=N\C(=O)c1ccc(OC)cc1OC [Example 484] | 
24 |  | 65 | CCNC(=S)NCCCn1c(-c2ccc(OC(F)(F)F)cc2)cs/c1=N\C(=O)c1ccc(OC)cc1OC [Example 494] | 
25 |  | 80 | CCNC(=O)NCCCn1c(-c2ccc(F)cc2)cs/c1=N\C(=O)c1ccc(Cl)cc1OC [Example 496] | 
26 |  | 102 | COc1ccc(C(=O)/N=c2\scc(-c3ccc(OC(F)(F)F)cc3)n2CCCNC(=O)N(C)C)c(OC)c1 [Example 508] | 
27 |  | 103 | COc1ccc(C(=O)/N=c2\scc(-c3ccc(OC(F)(F)F)cc3)n2CCCNC(=O)N2CCOCC2)c(OC)c1 [Example 509] | 
28 |  | 99 | CCOC(=O)CCNCCCn1c(-c2ccc(OC(F)(F)F)cc2)cs/c1=N\C(=O)c1ccc(OC)cc1OC [Example 520] | 
29 |  | 74 | COc1ccc(C(=O)/N=c2\scc(-c3ccc(OC(F)(F)F)cc3)n2CCCNCC(N)=O)c(OC)c1 [Example 521] | 
30 |  | 73 | COc1ccc(C(=O)/N=c2\scc(-c3ccc(OC(F)(F)F)cc3)n2CCCNCC(=O)NCC(=O)O)c(OC)c1 [Example 523] | 
31 |  | 32 | COc1ccc(C(=O)/N=c2\scc(-c3ccc(OC(F)(F)F)cc3)n2CCCNCC(=O)O)c(OC)c1 [Example 531] | 
32 |  | 87 | COc1ccc(C(=O)/N=c2\scc(-c3ccc(OC(F)(F)F)cc3)n2CCCNC(=N)N)c(OC)c1 [Example 534] | 
33 |  | 108 | COc1ccc(C(=O)/N=c2\scc(-c3ccc(OC(F)(F)F)cc3)n2CCCNC(=N)N2CCCCC2)c(OC)c1 [Example 535] | 
34 |  | 67 | CCS(=O)(=O)NCCCn1c(-c2ccc(OC(F)(F)F)cc2)cs/c1=N\C(=O)c1ccc(OC)cc1OC [Example 536] | 
